Data reported in US8148347B2, “Inhibition of interaction of PSD93 and PSDS95 with nNOS and NMDA receptors” (The Johns Hopkins University, priority 2000, dated 2012).
Entries after “also recorded” stand apart in the source; their conditions may differ.

Tests used:
[1] = tested on: PSD-93/NMDA receptor subunit 2B (NR2B); test: yeast two-hybrid growth in −LTH medium, pGAD424-PSD-93 and pGBT9-2B; format: cell-based
Source text: (§1) We utilized the yeast two-hybrid system to investigate the effects of halothane on protein interactions within the NMDA receptor signaling complex. The PDZ domain of nNOS or the C-terminus of NMDA receptor subunit 2B (NR2B) was fused in frame with the GAL4 DNA-binding domain in a yeast vector, pGBT9. The PDZ domain of PSD95 or PSD-93 was fused in frame with the GAL4 activation domain in another yeast vector, pGAD424. Both yeast vectors were co-transformed into the Y190 yeast strain, which was then grown in the absence or presence of halothane at clinically relevant concentrations. Protein-protein interactions were confirmed by both yeast growth on −Leu/−Trp/−His (−LTH) medium and lacz expression. To confirm the yeast two-hybrid results, the GST fusion protein binding assay was performed. The GST-fusion proteins, consisting of the second PDZ domain of PSD-95 or PSD-93, were expressed in bacterial BL21 cells and purified using glutathione-coupled agarose. After preincubation with or without different concentrations of halothane, GST-PSD-95 or GST-PSD-93 was incubated with membrane proteins from rat hippocampus at room temperature for 1 h. After extensive washing, the bound proteins were eluted by boiling in 1×SDS-PAGE sample buffer and detected by immunoblotting.

PSD-93/NMDA receptor = test: GST fusion protein binding assay, GST-PSD-93 and NMDA receptors; set-up: species or system rat; settings: preincubation with different concentrations of halothane
Source text: as §1, with “Protein-protein interactions were confirmed by both yeast growth on −Leu/−Trp/−His (−LTH) medium and lacz expression.” left out

[2] = tested on: PSD-95/NMDA receptor subunit 2B (NR2B); test: yeast two-hybrid growth in −LTH medium, pGAD424-PSD-95 and pGBT9-2B; format: cell-based
Source text: as §1

PSD-95/nNOS [3] = target: T1, PSD-95/nNOS (Rattus norvegicus, UniProt P31016); test: GST fusion protein binding assay, GST-PSD-95 and nNOS; settings: preincubation with different concentrations of halothane
T1 construct: The GST-fusion proteins, consisting of the second PDZ domain of PSD-95 or PSD-93; made in house; host or cells: bacterial BL21 cells (GST fusion); partner from rat hippocampal membranes
Source text: as §1

PSD-95/NMDA receptor = target: T2, PSD-95/NMDA receptor (Rattus norvegicus, UniProt P31016); test: GST fusion protein binding assay, GST-PSD-95 and NMDA receptors; settings: preincubation with different concentrations of halothane
T2 construct: The GST-fusion proteins, consisting of the second PDZ domain of PSD-95 or PSD-93; made in house; host or cells: bacterial BL21 cells (GST fusion); partner from rat hippocampal membranes
Source text: as §1

PSD-93/nNOS [4] = test: yeast two-hybrid growth in −LTH medium, pGAD424-PSD-93 and pGBT9-nNOS; format: cell-based
Source text: as §1

Y190 yeast strain = test: yeast growth in −LT media (cytotoxicity control); format: cell-based; settings: high halothane concentration (3.6%)
Source text: Under normal conditions, PSD-95 interacts with nNOS, resulting in good growth of the yeast carrying pGAD424-PSD-95 and pGBT9-nNOS in −LTH medium. […] Rather, the failure of yeast to grow in −LTH media in the presence of halothane must be due to disruption of protein-protein interactions by halothane. […] These findings confirm the yeast two-hybrid results.
as §1, with “The GST-fusion proteins, consisting of the second PDZ domain of PSD-95 or PSD-93, were expressed in bacterial BL21 cells and purified using glutathione-coupled agarose. After preincubation with or without different concentrations of halothane, GST-PSD-95 or GST-PSD-93 was incubated with membrane proteins from rat hippocampus at room temperature for 1 h.” left out

PSD-95/nNOS [5] = test: yeast two-hybrid growth in −LTH medium, pGAD424-PSD-95 and pGBT9-nNOS; format: cell-based
Source text: as §1

PSD-93/nNOS [6] = test: GST fusion protein binding assay, GST-PSD-93 and nNOS; set-up: species or system rat; settings: preincubation with different concentrations of halothane
Source text: as §1

T2 sequence (P31016 160-246 limits assumed): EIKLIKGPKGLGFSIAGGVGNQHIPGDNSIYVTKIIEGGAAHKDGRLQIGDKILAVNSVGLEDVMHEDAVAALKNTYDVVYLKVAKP
T1 sequence (P31016 160-246 limits assumed): as above

FC(F)(F)C(Cl)Br (centres unmarked) [halothane]
growth of the yeast in −LTH media [1]: inhibited by halothane in a similar way
binding of GST-fusion PSD-93 to rat brain NMDA receptors (PSD-93/NMDA receptor): blocks; also recorded: dose-dependently inhibited
growth of the yeast in −LTH media [2]: A similar phenomenon was observed
binding of GST-fusion PSD-95 to nNOS (PSD-95/nNOS [3]): blocks; also recorded: dose-dependently inhibited
binding of GST-fusion PSD-95 to rat brain NMDA receptors (PSD-95/NMDA receptor): blocks; also recorded: dose-dependently inhibited
growth of the yeast in −LTH media (PSD-93/nNOS [4]): inhibited by halothane in a similar way
yeast growth in −LT media (Y190 yeast strain): growth did not differ from yeast grown without halothane
growth of the yeast in −LTH media (PSD-95/nNOS [5]; dose dependence): dose-dependently inhibited
yeast growth in −LTH media (PSD-95/nNOS [5]; high concentration (1.3%)): completely inhibited yeast growth
growth of yeast clones in −LTH media (PSD-95/nNOS [5]; low halothane concentrations (0.4%-0.7%)): slowed the growth
binding of GST-fusion PSD-93 to nNOS (PSD-93/nNOS [6]): blocks; also recorded: dose-dependently inhibited
